# Laboratory results: paper PMC9598926, “Design and Synthesis of (Z)-5-(Substituted benzylidene)-3-cyclohexyl-2-thioxothiazolidin-4-one Analogues as Anti-Tyrosinase and Antioxidant Compounds: In Vitro and In Silico Insights” (Antioxidants, 2022)
# Tests used:
# Assay type in all cases: cell-based, murine
# MITF = assay: Western blot of nuclear MITF in α–MSH/IBMX stimulated B16F10 cells; settings: 5, 10, 20 µM
# Procedure: (§1) 2.15. Extraction of Cytosolic and Nuclear Proteins from Cells
# (§2) Western blotting was used to determine tyrosinase and MITF protein levels. Briefly, B16F10 cells were seeded in 60 mm culture dishes in the presence or absence of α–MSH (1 µM) plus IBMX (200 µM) with or without analog 3 (5, 10, and 20 µM for final concentrations) for 24 h, washed twice with ice-cold PBS and centrifuged for 10 min at 12,000× g. Cell pellets were suspended in 10 mM Tris (pH 8.0) containing 0.1% NP-40, 1 mM DTT, 1.5 mM MgCl2, 1 mM PMSF, and protease inhibitors (GenDEPOT, Barker, TX, USA), incubated on ice for 15 min, and centrifuged for 10 min at 12,000× g at 4 °C. Supernatants were used as cytosolic fractions. […] The protein concentrations were determined using a bicinchoninic acid (BCA)™ assay kit (Pierce, Rockford, IL, USA). […]
# (§3) Lysed protein samples from cells were boiled for 10 min in sample-loading buffer (0.1% bromophenol blue, 25% glycerol, 60 mM Tris-HCl (pH 6.8), 2% SDS, and 0.5% β-mercaptoethanol) at a volume ratio of 1:4. […] Immunoreactive proteins were detected using the enhanced chemiluminescence (ECL) detection reagent in the SuperSignal® West Pico Chemiluminescent Substrate kit (Advansta, San Jose, CA, USA). Western blot bands were visualized using a Davinch-Chemi imager™ (Davinch-K, Seoul, Korea), and quantification was conducted by densitometric analysis using CS analyzer software ver. […]
# tyrosinase [1] = assay: RT-qPCR of tyrosinase mRNA in α–MSH/IBMX stimulated B16F10 cells
# Procedure: (§4) 2.17. RNA Extraction and Quantitative Real Time-Polymerase Chain Reaction (RT-qPCR)
# (§5) B16F10 cells were extracted using GeneAll RiboEx Total RNA extraction reagent (GeneAll Biotechnology, Seoul, Korea) and transferred to tubes, added with chloroform (0.1 mL), shaken vigorously for 30 sec, and centrifuged for 15 min at 12,000× g. Aqueous phases were transferred to fresh tubes, and equal volumes of isopropanol were added. Samples were then incubated at 4 °C for 10 min and centrifuged for 15 min at 12,000× g at 4 °C. Supernatants were discarded, and RNA pellets were washed once with 0.8 mL of 70% ethanol and by vortexing briefly and centrifuged for 5 min at 7500× g at 4 °C. Pellets were dried at 56 °C for 10–15 min and dissolved in 30 µL of diethyl pyrocarbonate (DEPC)-treated water. The levels of RNA were determined by a Nanodrop spectrophotometer (NANO-200, Allsheng, Hangzhou, China). Complementary DNA (cDNA) was synthesized from total RNA (2 µg) using SuPrime Script RT Premix (with random hexamer) cDNA Synthesis Kit (GeNet Bio, Daejeon, Korea). […]
# (§6) To further investigate the anti-melanogenesis mechanism of analog 3, we examined its effect on the expressions of melanogenesis-associated genes and levels of melanogenesis-associated proteins in B16F10 cells. […] Nuclear levels of MITF protein were measured by Western blotting in α–MSH/IBMX-stimulated B16F10 cells. […]
# tyrosinase [2] = assay: Western blot of cytosolic tyrosinase in α–MSH/IBMX stimulated B16F10 cells; settings: 5, 10, 20 µM
# Procedure: as §1, §2, §3
# TRP-1 = assay: RT-qPCR of TRP-1 mRNA in α–MSH/IBMX stimulated B16F10 cells
# Procedure: as §4, §5, §6
smiles,measurement,setting,value
"O=C1/C(=C/c2ccc(O)cc2O)SC(=S)N1C1CCCCC1 [Analog 3, (Z)-3-Cyclohexyl-5-(2,4-dihydroxybenzylidene)-2-thioxothiazolidin-4-one]",effect on α–MSH/IBMX-induced increases in MITF levels (nuclear protein),MITF,significantly and concentration-dependently suppressed
same,effect on expression of tyrosinase (mRNA),tyrosinase [1]; α–MSH/IBMX stimulated,significantly and concentration-dependently decreased
same,tyrosinase gene expression,"tyrosinase [1]; α–MSH/IBMX stimulated (3.3-fold), 5 µM",2.6 fold
same,"effect on α–MSH/IBMX-induced increase in tyrosinase expression (protein, cytosol)",tyrosinase [2],significantly and concentration-dependently reduced
same,effect on expression of TRP-1 (mRNA),TRP-1; α–MSH/IBMX stimulated,significantly and concentration-dependently decreased
same,TRP-1 gene expression,"TRP-1; α–MSH/IBMX stimulated (2.2-fold), 5 µM",1.3 fold
